# Test results as given in patent publication US10695406B2, “Modulation of cellular stress using a B-cell oxidative and/or endoplasmic reticulum stress inhibitor and a targeting agent” (THE UNIVERSITY OF QUEENSLAND, priority 2014, dated 2020).
# Assays:
# MIN6N8 murine β-cells = experiment: ER stress (ERAI reporter of Xbp1-splicing / Xbp1 splicing) in MIN6N8 β-cells; assay type: cell-based; parameters: % Inhibition of ER Stress (Xbp1 splicing): concentration or dose not given beside the values; details: for induction of ER stress (ERAI reporter of Xbp1-splicing): 50 ng/mL cytokines, 24 hour
# Protocol: MIN6N8 cells are maintained in line with standard protocols. Cells are transfected with either the ERAI reporter plasmid (F-XBP1ΔDBD-Venus), or the ATF6-GFP plasmid (ADGENE), using LIPFECTAMINE 2000 according to the manufacturer's instructions.
# On induction of ER stress, splicing of […] mRNA by IRE1a results in the translation of Venus, but not an active form of XBP1. Fluorescence was measured (excitation: 485 nm; emission: 520 nm) using the POLARstar Omega plate reader and cells were treated 48 h after transfection. The results are normalized with Gapdh expression as fold of vehicle-treated control (Con) cells.
# Activation of ATF6 was assessed as follows: the area in pixels per square millimeter co-stained ATF6 and DAPI (blue and green), and total ATF6 staining (green) was determined in 5 fields of view for each section (n=6 for each condition) using IMAGEJ software version 1.45s. Data are presented as the percentage of ATF6 and DAPI co-fluorescence to the total ATF6 fluorescence. Phosphorylation of Ser-51 of eiF2 α was determined by an AlphaScreen assay as per the manufacturer's instructions (PERKIN-ELMER). The Griess reagent method was performed according to the manufacturer's instructions (MOLECULAR PROBES) to assess the intracellular levels of nitric oxide. 5-(and -6-)-carboxy-2,7-dichlorofluorescein diacetate (DCFDA) assay was used to determine the intracellular levels of H2O2 as previously described (Sakon et al., 2003). Cells were treated with glucose or recombinant cytokines at the concentrations indicated in the figure legends, or with 5 μM thapsigargin (SIGMA-ALDRICH) or 10 μg/mL tunicamycin (SIGMA-ALDRICH) or 0.1-0.5 mM Palmitate (SIGMA-ALDRICH) for the times indicated in the legends. ROS was […] using the dihydroethidium (DHE) fluorescent cell-permeable probe (SIGMA-ALDRICH). MIN6N8 cells plated at 2×10^6/mL were incubated with 3 μM DHE and subsequently treated with DMSO (control), 50 ng/mL IL-23 for 30 minutes±[…] IL-22 at the same time or 30 minutes prior to IL-23.
# To inhibit transcription factors the following specific inhibitors (and concentrations) were used:
# MIN6N8 cells were exposed to a panel of cytokines to determine the effect of each cytokine on ER stress. ER stress was measured using the above-described method. Specifically, the cells were exposed to either a 24 hour treatment of any one of […] glucose (hi glucose), 10 μM H2O2, 0.5 mM palmitic acid or 50 ng/mL cytokines; or a 6 hour treatment with 10 μg/mL tunicamycin or 5 μM thapsigargin.
# Experiments to assess ER and/or oxidative stress, and methods of qRT-PCT and/or quantifying gene expression were performed as described for Example 1. Xbp1 splicing is assessed by qRT-PCR, with normalization versus Gapdh, and expression presented as fold of vehicle-treated control cells.
# STAT3 phosphorylation = experiment: pStat3 staining in pancreatic islets vs liver, intestine and skin; assay type: in vivo, C57BL/6 mice; details: 30 min
# Protocol: Targeting to IL-22 to pancreas: Non-obese male C57BL/6 at 6-8 weeks of age. Each IL-22-GLP-1R ligand fusion protein or hIL-22 was administered i.p. at 256 ng/g of IL-22 and the molar equivalents for the individual fusion proteins (n=3 per regimen). IL-22-ScaB1 was administered at […]. Control mice received a PBS control i.p. injection only.
# To assess in vivo activation of the IL-22 receptor signaling pathway, after 30 min the mice were sacrificed and the following tissues were snap frozen and sections were prepared for each mouse: pancreas, skin (ear, tail), colon (rolled), and liver. Sections were stained by immunofluorescence for phosphorylated STAT3 using the Phospho-Stat3 (Tyr705) (D3A7) antibody.
# Murine MIN6N8 cells = experiment: ERAI-sXBP1 reporter ER stress in MIN6N8 cells with 0.5 mM palmitate; assay type: cell-based; details: 24 hours
# Protocol: Cell culture: Murine MIN6N8 cells were tested negative for mycoplasma. Cells were routinely cultured in phenol-red free DMEM (Life Technologies) containing 25 mM glucose (3.4 g/L sodium bicarbonate, 50 U/mL penicillin and streptomycin, 71.5 μM β-mercaptoethanol and 10% heat inactivated fetal bovine serum) and transferred to DMEM as above with 5.5 mM glucose 48 h prior to experimentation. Human LS174T cells were cultured in DMEM containing 10% heat-inactivated fetal bovine serum, 50 U mL^−1 penicillin and streptomycin.
# ER Stress Measurement: MIN6N8 cells were transfected with the ERAI reporter plasmid (F-XBP1ΔDBD-venus, using Lipofectamine 2000 according to the manufacturer's instructions. For ERAI there was negligible fluorescence in the absence of ER stressors, but upon induction of ER stress, splicing of XBP1 mRNA by IRE1a results in the translation of Venus but not an active form of XBP1. Fluorescence was measured (excitation: 485 nm; emission: 520 nm) using a POLARstar Omega plate reader and cells were treated 48 h after transfection. […] After 24 h, ERAI-sXBP1 GFP reporter fluorescence was measured.
molecule,measurement,setting,value
"N[C@@H](CCC(=O)N[C@@H](CS)C(=O)NCC(=O)O)C(=O)O [GSH, reduced glutathione]",% Inhibition of ER Stress (Xbp1 splicing),MIN6N8 murine β-cells; ER stress induced by IFNγ,15%
same,% Inhibition of ER Stress (Xbp1 splicing),MIN6N8 murine β-cells; ER stress induced by IL-1β,16%
same,% Inhibition of ER Stress (Xbp1 splicing),MIN6N8 murine β-cells; ER stress induced by IL-17A,0%
same,% Inhibition of ER Stress (Xbp1 splicing),MIN6N8 murine β-cells; ER stress induced by IL-23,87%
same,% Inhibition of ER Stress (Xbp1 splicing),MIN6N8 murine β-cells; ER stress induced by IL-24,6%
same,% Inhibition of ER Stress (Xbp1 splicing),MIN6N8 murine β-cells; ER stress induced by IL-33,13%
same,% Inhibition of ER Stress (Xbp1 splicing),MIN6N8 murine β-cells; ER stress induced by MIP-2α,7%
"CNC(=N)NCCC[C@H](N)C(=O)O [L-NMMA, N^G-Methyl-L-arginine]",% Inhibition of ER Stress (Xbp1 splicing),MIN6N8 murine β-cells; ER stress induced by IFNγ,87%
same,% Inhibition of ER Stress (Xbp1 splicing),MIN6N8 murine β-cells; ER stress induced by IL-1β,93%
same,% Inhibition of ER Stress (Xbp1 splicing),MIN6N8 murine β-cells; ER stress induced by IL-17A,83%
same,% Inhibition of ER Stress (Xbp1 splicing),MIN6N8 murine β-cells; ER stress induced by IL-23,78%
same,% Inhibition of ER Stress (Xbp1 splicing),MIN6N8 murine β-cells; ER stress induced by IL-24,92%
same,% Inhibition of ER Stress (Xbp1 splicing),MIN6N8 murine β-cells; ER stress induced by IL-33,90%
same,% Inhibition of ER Stress (Xbp1 splicing),MIN6N8 murine β-cells; ER stress induced by MIP-2α,95%
IL-1β: ER stress-inducing cytokine,induction of ER stress (ERAI reporter of Xbp1-splicing),MIN6N8 murine β-cells,lower stress response
IL-17A: ER stress-inducing cytokine,induction of ER stress (ERAI reporter of Xbp1-splicing),MIN6N8 murine β-cells,lower stress response
MIP-2α: ER stress-inducing chemokine,induction of ER stress (ERAI reporter of Xbp1-splicing),MIN6N8 murine β-cells,lower stress response
superoxide dismutase [SOD1],% Inhibition of ER Stress (Xbp1 splicing),MIN6N8 murine β-cells; ER stress induced by IFNγ,74%
same,% Inhibition of ER Stress (Xbp1 splicing),MIN6N8 murine β-cells; ER stress induced by IL-1β,96%
same,% Inhibition of ER Stress (Xbp1 splicing),MIN6N8 murine β-cells; ER stress induced by IL-17A,65%
same,% Inhibition of ER Stress (Xbp1 splicing),MIN6N8 murine β-cells; ER stress induced by IL-23,95%
same,% Inhibition of ER Stress (Xbp1 splicing),MIN6N8 murine β-cells; ER stress induced by IL-24,59%
same,% Inhibition of ER Stress (Xbp1 splicing),MIN6N8 murine β-cells; ER stress induced by IL-33,74%
same,% Inhibition of ER Stress (Xbp1 splicing),MIN6N8 murine β-cells; ER stress induced by MIP-2α,88%
"IL-23: ER stress-inducing cytokine (protein, UniProt Q9NPF7 20-189; P29460 23-328, looked up) Interleukin-23 subunit alpha: RAVPGGSSPAWTQCQQLSQKLCTLAWSAHPLVGHMDLREEGDEETTNDVPHIQCGDGCDPQGLRDNSQFCLQRIHQGLIFYEKLLGSDIFTGEPSLLPDSPVGQLHASLLGLSQLLQPEGHHWETQQIPSLSPSQPWQRLLLRFKILRSLQAFVAVAARVFAHGAATLSP Interleukin-12 subunit beta: IWELKKDVYVVELDWYPDAPGEMVVLTCDTPEEDGITWTLDQSSEVLGSGKTLTIQVKEFGDAGQYTCHKGGEVLSHSLLLLHKKEDGIWSTDILKDQKEPKNKTFLRCEAKNYSGRFTCWWLTTISTDLTFSVKSSRGSSDPQGVTCGAATLSAERVRGDNKEYEYSVECQEDSACPAAEESLPIEVMVDAVHKLKYENYTSSFFIRDIIKPDPPKNLQLKPLKNSRQVEVSWEYPDTWSTPHSYFSLTFCVQVQGKSKREKKDRVFTDKTSATVICRKNASISVRAQDRYYSSSWSEWASVPCS",induction of ER stress (ERAI reporter of Xbp1-splicing),MIN6N8 murine β-cells,potent inducers of ER stress
"IL-24: ER stress-inducing cytokine (protein, UniProt Q13007 52-206, looked up) Interleukin-24: QEFHFGPCQVKGVVPQKLWEAFWAVKDTMQAQDNITSARLLQQEVLQNVSDAESCYLVHTLLEFYLKTVFKNYHNRTVEVRTLKSFSTLANNFVLIVSQLQPSQENEMFSIRDSAHRRFLLFRRAFKQLDVEAALTKALGEVDILLTWMQKFYKL",induction of ER stress (ERAI reporter of Xbp1-splicing),MIN6N8 murine β-cells,potent inducers of ER stress
"IL-22-ScaB1: IL-22-single chain antibody construct targeting a β-cell antigen; scFv-cytokine fusion protein with His- and myc-tag (protein, His-ScaB1 scFv-IL22 human-myc, IL-22-single chain antibody construct targeting a β-cell antigen; scFv-cytokine fusion protein with His- and myc-tag) HHHHHHEVQLLESGGGLVQPGGSLRLSCAASGFTFSSYAMSWVRQAPGKGLEWVSSITAEGTHTWYADSVKGRFTISRDNSKNTLYLQMNSLRAEDTAVYYCAKTSYRFDYWGQGTLVTVSSGGGGSGGGGSGGGGSDIQMTQSPSSLSASVGDRVTITCRASQSISSYLNWYQQKPGKAPKLLIYKASRLQSGVPSRFSGSGSGTDFTLTISSLQPEDFATYYCQQKWDPPRTFGQGTKVEIKRSGGGGSAPISSHCRLDKSNFQQPYITNRTFMLAKEASLADNNTDVRLIGEKLFHGVSMSERCYLMKQVLNFTLEEVLFPQSDRFQPYMQEVVPFLARLSNRLSTCHIEGDDLHIQRNVQKLKDTVKKLGESGEIKAIGELDLLFMSLRNACIEQKLISEEDLN","pStat3 ratio pancreatic islets vs liver, skin or intestine relative to human IL-22",STAT3 phosphorylation; 0.96 nmoles/g,not greater than for native human IL-22
same,"pStat3 ratio pancreatic islets vs intestine, fold change relative to human IL-22",STAT3 phosphorylation; 15.4 nmoles/g,420 fold
same,"pStat3 ratio pancreatic islets vs liver, fold change relative to human IL-22",STAT3 phosphorylation; 15.4 nmoles/g,120 fold
same,"pStat3 ratio pancreatic islets vs skin, fold change relative to human IL-22",STAT3 phosphorylation; 15.4 nmoles/g,110 fold
same,ER stress caused by the protein alone,"Murine MIN6N8 cells; 15.4 nM, no palmitate",did not cause ER stress
same,potency compared to the native human IL-22 in reducing ER stress,Murine MIN6N8 cells; 0.5 mM palmitate,< 50%
same,protection from palmitate-induced ER stress,"Murine MIN6N8 cells; co-treated with 0.5 mM palmitate, increasing concentrations",reduced ER stress induced by palmitate
"IL-33: ER stress-inducing cytokine (protein, UniProt O95760 1-270, looked up) Interleukin-33: MKPKMKYSTNKISTAKWKNTASKALCFKLGKSQQKAKEVCPMYFMKLRSGLMIKKEACYFRRETTKRPSLKTGRKHKRHLVLAACQQQSTVECFAFGISGVQKYTRALHDSSITGISPITEYLASLSTYNDQSITFALEDESYEIYVEDLKKDEKKDKVLLSYYESQHPSNESGDGVDGKMLMVTLSPTKDFWLHANNKEHSVELHKCEKPLPDQAFFVLHNMHSNCVSFECKTDPGVFIGVKDNHLALIKVDSSENLCTENILFKLSET",induction of ER stress (ERAI reporter of Xbp1-splicing),MIN6N8 murine β-cells,potent inducers of ER stress
"IL-10: cytokine that inhibits ER stress (protein, UniProt P22301 19-178, looked up) Interleukin-10: SPGQGTQSENSCTHFPGNLPNMLRDLRDAFSRVKTFFQMKDQLDNLLLKESLLEDFKGYLGCQALSEMIQFYLEEVMPQAENQDPDIKAHVNSLGENLKTLRLRLRRCHRFLPCENKSKAVEQVKNAFNKLQEKGIYKAMSEFDIFINYIEAYMTMKIRN",inhibition of ER stress initiated by cytokines or tunicamycin,MIN6N8 murine β-cells; pair-wise combinations of cytokines,inhibit ER stress
"IFN-γ: ER stress-inducing cytokine (protein, UniProt P01579 24-161, looked up) Interferon gamma: QDPYVKEAENLKKYFNAGHSDVADNGTLFLGILKNWKEESDRKIMQSQIVSFYFKLFKNFKDDQSIQKSVETIKEDMNVKFFNSNKKKRDDFEKLTNYSVTDLNVQRKAIHELIQVMAELSPAAKTGKRKRSQMLFRG",induction of ER stress (ERAI reporter of Xbp1-splicing),MIN6N8 murine β-cells,lower stress response
